Target: T1, ERα (Homo sapiens, UniProt P03372)
T1 construct: host or cells: MCF7
T1 sequence (P03372 1-595): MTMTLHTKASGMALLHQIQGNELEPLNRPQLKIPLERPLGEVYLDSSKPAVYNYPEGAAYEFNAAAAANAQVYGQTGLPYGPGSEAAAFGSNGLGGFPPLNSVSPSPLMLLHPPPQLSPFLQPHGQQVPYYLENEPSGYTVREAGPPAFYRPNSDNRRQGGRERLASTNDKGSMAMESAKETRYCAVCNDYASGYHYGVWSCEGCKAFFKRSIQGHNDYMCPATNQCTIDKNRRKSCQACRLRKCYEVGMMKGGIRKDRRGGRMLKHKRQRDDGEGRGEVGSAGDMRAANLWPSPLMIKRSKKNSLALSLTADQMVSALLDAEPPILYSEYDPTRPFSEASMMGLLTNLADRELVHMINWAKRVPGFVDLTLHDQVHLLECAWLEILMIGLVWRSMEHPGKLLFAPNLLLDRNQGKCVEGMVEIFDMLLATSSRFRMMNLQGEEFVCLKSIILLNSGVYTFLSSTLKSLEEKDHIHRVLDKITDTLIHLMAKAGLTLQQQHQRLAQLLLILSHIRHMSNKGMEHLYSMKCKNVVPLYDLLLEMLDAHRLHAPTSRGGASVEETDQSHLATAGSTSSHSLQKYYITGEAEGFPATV
Experiment: Estrogen receptor degradation activity: breast cancer cell ERα in cell western assay (MCF7 cells)
Format: cell-based
Conditions: for % Degradation At 0.3 μM: 4 hours, relative to fulvestrant 0.1 μM positive control; for DC50: read-out: Degradation IC50
Procedure, shortened: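 Compounds were applied to MCF7 cells in stripped-serum, phenol red-free medium for 4 h at final 0.3–0.0000018 μM, with fulvestrant (0.1 μM) as control. Value: IC50 (nM) for 50% ERα degradation.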

[1] = 4 hours post compound addition, concentration which degrades 50% of the estrogen receptor

| Compound | % Degradation At 0.3 μM [%] | DC50 [1] [nM] | IC50 [1] [nM] |
| --- | --- | --- | --- |
| Cc1c(C2=C(c3ccc(CC4CN(CCC(F)F)C4)cc3)c3ccc(C(=O)O)cc3CCC2)ccc(Cl)c1F [Example 292, 8-(4-chloro-3-fluoro-2-methylphenyl)-9-(4-((1-(3,3-difluoropropyl)azetidin-3-yl)methyl)phenyl)-6,7-dihydro-5H-benzo[7]annulene-3-carboxylic acid] | 93 | 0.4 | – |
| Cc1c(Cl)cccc1C1=C(c2ccc(CC3CN(CCC(F)F)C3)cc2)c2ccc(C(=O)O)cc2CCC1 [Example 293, 8-(3-chloro-2-methylphenyl)-9-(4-((1-(3,3-difluoropropyl)azetidin-3-yl)methyl)phenyl)-6,7-dihydro-5H-benzo[7]annulene-3-carboxylic acid] | 86 | 0.6 | – |
| O=C(O)c1ccc2c(c1)CCCC(CC1CCC1)=C2c1ccc(CC2CN(CCCF)C2)cc1 [Example 294, 8-(cyclobutylmethyl)-9-(4-((1-(3-fluoropropyl)azetidin-3-yl)methyl)phenyl)-6,7-dihydro-5H-benzo[7]annulene-3-carboxylic acid] | 92 | – | 0.2 |
| O=C(O)c1ccc2c(c1)CCCC(c1cc(CC(F)(F)F)ccc1F)=C2c1ccc(CC2CN(CCCF)C2)cc1 [Example 295, 8-(2-fluoro-5-(2,2,2-trifluoroethyl)phenyl)-9-(4-((1-(3-fluoropropyl)azetidin-3-yl)methyl)phenyl)-6,7-dihydro-5H-benzo[7]annulene-3-carboxylic acid] | 86 | 0.7 | – |
| O=C(O)c1ccc2c(c1)CCCC(c1cccc(F)c1C(F)F)=C2c1ccc(CC2CN(CCCF)C2)cc1 [Example 296, 8-(2-(difluoromethyl)-3-fluorophenyl)-9-(4-((1-(3-fluoropropyl)azetidin-3-yl)methyl)phenyl)-6,7-dihydro-5H-benzo[7]annulene-3-carboxylic acid] | 91 | 0.7 | – |
| O=C(O)c1ccc2c(c1)CCCC(c1cccc(CC(F)F)c1)=C2c1ccc(CC2CN(CCCF)C2)cc1 [Example 297, 8-(3-(2,2-difluoroethyl)phenyl)-9-(4-((1-(3-fluoropropyl)azetidin-3-yl)methyl)phenyl)-6,7-dihydro-5H-benzo[7]annulene-3-carboxylic acid] | 81 | 0.7 | – |
| O=C(O)c1ccc2c(c1)CCCC(c1cccc(CC(F)(F)F)c1)=C2c1ccc(CC2CN(CCCF)C2)cc1 [Example 298, 9-(4-((1-(3-fluoropropyl)azetidin-3-yl)methyl)phenyl)-8-(3-(2,2,2-trifluoroethyl)phenyl)-6,7-dihydro-5H-benzo[7]annulene-3-carboxylic acid] | 82 | 0.5 | – |
| O=C(O)c1ccc2c(c1)CCCC(c1nc(Cl)ccc1C(F)(F)F)=C2c1ccc(CC2CN(CCCF)C2)cc1 [Example 300, 8-(6-chloro-3-(trifluoromethyl)pyridin-2-yl)-9-(4-((1-(3-fluoropropyl)azetidin-3-yl)methyl)phenyl)-6,7-dihydro-5H-benzo[7]annulene-3-carboxylic acid] | 88 | 11.2 | – |
| O=C(O)c1ccc2c(c1)CCCC(c1ccccc1CC(F)(F)F)=C2c1ccc(CC2CN(CCCF)C2)cc1 [Example 301, 9-(4-((1-(3-fluoropropyl)azetidin-3-yl)methyl)phenyl)-8-(2-(2,2,2-trifluoroethyl)phenyl)-6,7-dihydro-5H-benzo[7]annulene-3-carboxylic acid] | 89 | 0.5 | – |
| Oc1c(F)cc2c(c1F)CCCC(c1ccc(Cl)cc1Cl)=C2c1ccc(CC2CN(CCCF)C2)cc1 [Example 305, 8-(2,4-dichlorophenyl)-2,4-difluoro-9-(4-((1-(3-fluoropropyl)azetidin-3-yl)methyl)phenyl)-6,7-dihydro-5H-benzo[7]annulen-3-ol] | 85 | 1.2 | – |
| O=C(O)c1ccc2c(c1)CCCC(C1CC3CCC(C3)C1)=C2c1ccc(CC2CN(CCCF)C2)cc1 (stereo not shown) [Example 316, 8-(bicyclo[3.2.1]octan-3-yl)-9-(4-((1-(3-fluoropropyl)azetidin-3-yl)methyl)phenyl)-6,7-dihydro-5H-benzo[7]annulene-3-carboxylic acid] | 81 | 1.2 | – |
| Cl.O=C(O)c1ccc2c(c1)CCCC(c1ccc(C(F)(F)F)cc1)=C2c1ccc(CC2CN(CCCF)C2)cc1 [Example 318, 9-(4-((1-(3-fluoropropyl)azetidin-3-yl)methyl)phenyl)-8-(4-(trifluoromethyl)phenyl)-6,7-dihydro-5H-benzo[7]annulene-3-carboxylic acid hydrochloride] | 94 | 0.6 | – |
| O=C(O)c1ccc2c(c1)CCCC(c1cccc(CO)c1)=C2c1ccc(CC2CN(CCCF)C2)cc1 [Example 320, 9-(4-((1-(3-fluoropropyl)azetidin-3-yl)methyl)phenyl)-8-(3-(hydroxymethyl)phenyl)-6,7-dihydro-5H-benzo[7]annulene-3-carboxylic acid] | 80 | 110 | – |
| O=C(O)c1ccc2c(c1)CCCC([C@@H]1C[C@H]1C1CCC(F)(F)CC1)=C2c1ccc(CC2CN(CCCF)C2)cc1 [Example 331, 8-((1R,2S)-2-(4,4-difluorocyclohexyl)cyclopropyl)-9-(4-((1-(3-fluoropropyl)azetidin-3-yl)methyl)phenyl)-6,7-dihydro-5H-benzo[7]annulene-3-carboxylic acid] | 77 | 10.7 | – |
| COc1c(Cl)cccc1C1=C(c2ccc(CC3CN(CCCF)C3)cc2)c2ccc(C(=O)O)cc2CCC1 [Example 334, 8-(3-chloro-2-methoxyphenyl)-9-(4-((1-(3-fluoropropyl)azetidin-3-yl)methyl)phenyl)-6,7-dihydro-5H-benzo[7]annulene-3-carboxylic acid] | 91 | 0.4 | – |

Further molecules by falling DC50 [1], results first:

| % Degradation At 0.3 μM [%] | DC50 [1] [nM] | IC50 [1] [nM] | Compound |
| --- | --- | --- | --- |
| 73 | 48 | – | O=C(O)c1ccc2c(c1)CCCC(c1cccc(CCO)c1)=C2c1ccc(CC2CN(CCCF)C2)cc1 [Example 319, 9-(4-((1-(3-fluoropropyl)azetidin-3-yl)methyl)phenyl)-8-(3-(2-hydroxyethyl)phenyl)-6,7-dihydro-5H-benzo[7]annulene-3-carboxylic acid] |
| 82 | 25.8 | – | COc1ncc(C2=C(c3ccc(CC4CN(CCCF)C4)cc3)c3ccc(C(=O)O)cc3CCC2)cc1C(F)(F)F [Example 306, 9-(4-((1-(3-fluoropropyl)azetidin-3-yl)methyl)phenyl)-8-(6-methoxy-5-(trifluoromethyl)pyridin-3-yl)-6,7-dihydro-5H-benzo[7]annulene-3-carboxylic acid] |
| 89 | 17.4 | – | FCCCN1CC(Cc2ccc(C3=C(c4ccccc4Cl)CCCc4ccccc43)cc2)C1 [Example 304, 3-(4-(8-(2-chlorophenyl)-6,7-dihydro-5H-benzo[7]annulen-9-yl)benzyl)-1-(3-fluoropropyl)azetidine] |
| 73 | 9 | – | O=C(O)c1ccc2c(c1)CCCC(Cc1ccccc1)=C2c1ccc(CC2CN(CCCF)C2)cc1 [Example 311, 8-benzyl-9-(4-((1-(3-fluoropropyl)azetidin-3-yl)methyl)phenyl)-6,7-dihydro-5H-benzo[7]annulene-3-carboxylic acid] |
| 87 | 3 | – | O=C(O)c1ccc2c(c1)SCC(c1ccc(F)cc1F)=C2c1ccc(CC2CN(CCCF)C2)cc1 [Example 314, 3-(2,4-difluorophenyl)-4-(4-((1-(3-fluoropropyl)azetidin-3-yl)methyl)phenyl)-2H-thiochromene-7-carboxylic acid] |
| 94 | 1.4 | – | O=C(O)c1ccc2c(c1)SCC(c1ccc(Cl)cc1Cl)=C2c1ccc(CC2CN(CCCF)C2)cc1 [Example 308, 3-(2,4-dichlorophenyl)-4-(4-((1-(3-fluoropropyl)azetidin-3-yl)methyl)phenyl)-2H-thiochromene-7-carboxylic acid] |
| 85 | 0.4 | – | Cl.O=C(O)c1ccc2c(c1)CCCC(c1cc(F)ccc1C(F)(F)F)=C2c1ccc(CC2CN(CCCF)C2)cc1 [Example 332, 8-(5-fluoro-2-(trifluoromethyl)phenyl)-9-(4-((1-(3-fluoropropyl)azetidin-3-yl)methyl)phenyl)-6,7-dihydro-5H-benzo[7]annulene-3-carboxylic acid hydrochloride] |
| 90 | 0.3 | – | Cc1cccc(C2=C(c3ccc(CC4CN(CCCF)C4)cc3)c3ccc(C(=O)O)cc3CCC2)c1C(F)(F)F.Cl [Example 313, 9-(4-((1-(3-fluoropropyl)azetidin-3-yl)methyl)phenyl)-8-(3-methyl-2-(trifluoromethyl)phenyl)-6,7-dihydro-5H-benzo[7]annulene-3-carboxylic acid hydrochloride] |
